Source: ChEMBL document CHEMBL1938244, “Synthesis, anticancer activity and apoptosis inducing ability of bisindole linked pyrrolo[2,1-c][1,4]benzodiazepine conjugates” (2012)

Assays:
Type in all cases: functional
A549 = test: Anticancer activity against human A549 cells by SRB method
MCF7 = test: Anticancer activity against human MCF7 cells by SRB method
A2780 = test: Anticancer activity against human A2780 cells by SRB method
ZR-75-1 = test: Anticancer activity against human ZR-75-1 cells by SRB method
SiHa = test: Anticancer activity against human SiHa cells by SRB method
COLO 205 = test: Anticancer activity against human COLO205 cells by SRB method
KB = test: Anticancer activity against human KB cells by SRB method

| GI50 (A549) | GI50 (MCF7) | GI50 (A2780) | GI50 (COLO 205) | GI50 (KB) | Compound | GI50 (ZR-75-1) | GI50 (SiHa) |
| --- | --- | --- | --- | --- | --- | --- | --- |
| 29000 nM | 140 nM | 2460 nM |  |  | COc1cc2c(cc1OCCCCCCOc1ccc(C(c3c[nH]c4ccccc34)c3c[nH]c4ccccc34)cc1)N=C[C@@H]1CCCN1C2=O |  |  |
| 13000 nM | < 100 nM | < 100 nM | 14700 nM | 160 nM | COc1cccc2c1C(=O)c1c(O)c3c(c(O)c1C2=O)C[C@@](O)(C(=O)CO)C[C@@H]3O[C@H]1C[C@H](N)[C@H](O)[C@H](C)O1 [DOXORUBICIN] | < 100 nM | 1900 nM |
|  | 180 nM | 2070 nM | 24000 nM | 2300 nM | COc1cc2c(cc1OCCCCOc1ccc(C(c3c[nH]c4ccccc34)c3c[nH]c4ccccc34)cc1)N=C[C@@H]1CCCN1C2=O | 26500 nM | 2490 nM |
|  | 2010 nM | 2290 nM | 2300 nM | 30100 nM | COc1cc2c(cc1OCCCCCCOc1cccc(C(c3c[nH]c4ccccc34)c3c[nH]c4ccccc34)c1)N=C[C@@H]1CCCN1C2=O |  | 30800 nM |
